The target of one data set is T1, dCTP pyrophosphatase 1 (Homo sapiens, UniProt Q9H773).
T1 sequence (Q9H773 whole entry): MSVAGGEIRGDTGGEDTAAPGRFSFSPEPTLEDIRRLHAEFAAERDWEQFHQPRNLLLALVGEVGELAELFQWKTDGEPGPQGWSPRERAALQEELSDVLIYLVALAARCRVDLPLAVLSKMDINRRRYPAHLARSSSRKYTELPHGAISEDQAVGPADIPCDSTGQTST
The data set is described as follows: Inhibition of recombinant human N-terminal His-tagged dCTPase 1 expressed in Escherichia coli BL21(DE3)pLysS using dCTP as substrate after 1 hr by malachite green reagent based assay.

Data set [1] in a line: Stability of the compound in biochemical assay buffer under basic mobile phase conditions by HPLC-MS analysis. The format is physicochemical.
A short description of data set [2]: Stability of the compound in DMSO measured after several months by HPLC-MS analysis. In kind it is physicochemical.
Data set [3] can be described thus: Stability of the compound in biochemical assay buffer under mildly acidic mobile phase conditions by HPLC-MS analysis. The format is physicochemical.

One may read the IC50 as the concentration needed to halve the response being measured. For the compound `Cc1cc(-c2nn3c(-c4ccccn4)nnc3s2)c2ccccc2n1`, the IC50 at dCTP pyrophosphatase 1 turned out to be 314 nM. Further, the Stability result in data set [1], in data set [2] and in data set [3] was “Stable” each time.
For `Cc1onc(-c2cccs2)c1-c1nn2c(-c3ccco3)nnc2s1`, on dCTP pyrophosphatase 1, the IC50 turned out to be 1030 nM. The Stability result in data set [1], in data set [2] and in data set [3] was “Stable” throughout.
As to `Clc1ccc(/C=C/Cc2nn3c(-c4ccccn4)nnc3s2)cc1`, on dCTP pyrophosphatase 1, the 50% inhibitory concentration (IC50) turned out to be 220 nM. Besides, the Stability entry in data set [1], in data set [2] and in data set [3] was “Stable” each time.
For `Cc1cccc(-c2nn3c(-c4ccccn4)nnc3s2)c1`, the IC50 on dCTP pyrophosphatase 1 was 449 nM. Besides, the Stability result in data set [1], in data set [2] and in data set [3] was “Stable” throughout.
With `c1coc(-c2nnc3sc(-c4ccc5ccccc5n4)nn23)c1`, the concentration for half-maximal inhibition (IC50) at dCTP pyrophosphatase 1 was found to be 177 nM. For the same compound, the Stability entry in data set [1], in data set [2] and in data set [3] was “Stable” each time.
`CN(C)c1cccc(-c2nn3c(-c4ccccn4)nnc3s2)c1`: the IC50 at dCTP pyrophosphatase 1 stood at 277 nM. Further, the Stability entry in data set [1], in data set [2] and in data set [3] was “Stable” each time.
Turning to `COc1ccc(-c2nn3c(-c4cccnc4)nnc3s2)cc1`, on dCTP pyrophosphatase 1, the 50% inhibitory concentration (IC50) is 2610 nM. Besides, the Stability result in data set [1], in data set [2] and in data set [3] was “Stable” throughout.
Consider `Brc1cccc(-c2nn3c(-c4ccccn4)nnc3s2)c1`, for which, at dCTP pyrophosphatase 1, the half-inhibitory concentration (IC50) amounted to 602 nM. Besides, the Stability result in data set [1], in data set [2] and in data set [3] was “Stable” in each case.
Consider `Brc1ccccc1-c1nn2c(-c3ccccn3)nnc2s1`, for which the IC50 on dCTP pyrophosphatase 1 was determined as 328 nM. The Stability result in data set [1], in data set [2] and in data set [3] was “Stable” in each case.
Turning to `CCc1noc(C)c1-c1nn2c(-c3cccs3)nnc2s1`, the IC50 at dCTP pyrophosphatase 1 is 346 nM. The Stability entry in data set [1], in data set [2] and in data set [3] was “Stable” throughout.
As to `C(=C\c1cccnc1)/Cc1nn2c(-c3ccccc3)nnc2s1`, on dCTP pyrophosphatase 1, the half-maximal inhibitory concentration (IC50) worked out at 558 nM. Besides, the Stability result in data set [1], in data set [2] and in data set [3] was “Stable” each time.
With `Fc1ccc(-c2nn3c(-c4ccccn4)nnc3s2)cc1`, the IC50 on dCTP pyrophosphatase 1 turned out to be 332 nM. For the same compound, the Stability result in data set [1], in data set [2] and in data set [3] was “Stable” each time.
For the compound `CCc1cc(-c2nnc3sc(-c4ccccc4)nn23)n(C)n1`, at dCTP pyrophosphatase 1, the half-inhibitory concentration (IC50) was more than 10000 nM. The Stability result in data set [1], in data set [2] and in data set [3] was “Stable” throughout.
Turning to `Clc1ccc(-c2nn3c(-c4ccccn4)nnc3s2)cc1`, the concentration for half-maximal inhibition (IC50) at dCTP pyrophosphatase 1 was 204 nM. The Stability result in data set [1], in data set [2] and in data set [3] was “Stable” each time.
Take `c1ccc(-c2nn3c(-c4ccco4)nnc3s2)cc1`: the IC50 at dCTP pyrophosphatase 1 is 592 nM. For the same compound, the Stability entry in data set [1], in data set [2] and in data set [3] was “Stable” throughout.
With `Brc1ccc(-c2nn3c(-c4ccccn4)nnc3s2)cc1`, at dCTP pyrophosphatase 1, the IC50 stood at 164 nM. Also, the Stability result in data set [1], in data set [2] and in data set [3] was “Stable” throughout.
On to `c1ccc(-c2nn3c(-c4ccccn4)nnc3s2)cc1`, for which the half-inhibitory concentration (IC50) at dCTP pyrophosphatase 1 stood at 619 nM. In addition, the Stability entry in data set [1], in data set [2] and in data set [3] was “Stable” in each case.
`CCCc1nnc2sc(-c3cccc(OC)c3)nn12`: the half-maximal inhibitory concentration (IC50) on dCTP pyrophosphatase 1 stood at 7460 nM. Also, the Stability entry in data set [1], in data set [2] and in data set [3] was “Stable” in each case.
Consider `CCCc1nnc2sc(-c3ccc(OC)cc3)nn12`, for which, on dCTP pyrophosphatase 1, the IC50 worked out at 6970 nM. Moreover, the Stability entry in data set [1], in data set [2] and in data set [3] was “Stable” each time.
Turning to `COc1ccccc1-c1nn2c(-c3ccccn3)nnc2s1`, the half-maximal inhibitory concentration (IC50) at dCTP pyrophosphatase 1 amounted to 1030 nM. Further, the Stability entry in data set [1], in data set [2] and in data set [3] was “Stable” in each case.
Turning to `Fc1ccccc1-c1nnc2sc(-c3ccccc3)nn12`, the IC50 at dCTP pyrophosphatase 1 came out at 410 nM. Moreover, the Stability result in data set [1], in data set [2] and in data set [3] was “Stable” throughout.
As for `CCCCc1nnc2sc(-c3cccc(OC)c3)nn12`, on dCTP pyrophosphatase 1, the concentration for half-maximal inhibition (IC50) was determined as 2060 nM. In addition, the Stability result in data set [1], in data set [2] and in data set [3] was “Stable” throughout.
For the compound `c1ccc(-c2nnc3sc(-c4cccnc4)nn23)nc1`, the IC50 at dCTP pyrophosphatase 1 amounted to 233 nM. Also, the Stability result in data set [1], in data set [2] and in data set [3] was “Stable” in each case.
Take `c1coc(-c2nnc3sc(-c4csc5c4CCCC5)nn23)c1`: the IC50 at dCTP pyrophosphatase 1 is 144 nM. In addition, the Stability result in data set [1], in data set [2] and in data set [3] was “Stable” in each case.
`COc1cccc(-c2nnc3sc(-c4ccncc4)nn23)c1`: the half-maximal inhibitory concentration (IC50) at dCTP pyrophosphatase 1 was determined as 1020 nM. In addition, the Stability entry in data set [1], in data set [2] and in data set [3] was “Stable” in each case.
`c1coc(-c2nnc3sc(-c4cccs4)nn23)c1`: the IC50 at dCTP pyrophosphatase 1 came out at 704 nM. Moreover, the Stability result in data set [1], in data set [2] and in data set [3] was “Stable” throughout.
For `c1ccc(-c2nnc3sc(-c4cccc5ccccc45)nn23)nc1`, the 50% inhibitory concentration (IC50) on dCTP pyrophosphatase 1 stood at 204 nM. Moreover, the Stability entry in data set [1], in data set [2] and in data set [3] was “Stable” each time.
Take `c1ccc(-c2nnc3sc(-c4ccc5ccccc5c4)nn23)nc1`: at dCTP pyrophosphatase 1, the IC50 is 95 nM. Moreover, the Stability entry in data set [1], in data set [2] and in data set [3] was “Stable” throughout.
For the compound `Cc1ccccc1-c1nn2c(-c3cnccn3)nnc2s1`, the half-maximal inhibitory concentration (IC50) on dCTP pyrophosphatase 1 was determined as 691 nM. In addition, the Stability entry in data set [1], in data set [2] and in data set [3] was “Stable” in each case.
With `Ic1ccccc1-c1nn2c(-c3ccccn3)nnc2s1`, the IC50 on dCTP pyrophosphatase 1 was 505 nM. Also, the Stability result in data set [1], in data set [2] and in data set [3] was “Stable” in each case.
Consider `COc1cccc(-c2nn3c(-c4ccncc4)nnc3s2)c1`, for which the IC50 at dCTP pyrophosphatase 1 is more than 10000 nM. Further, the Stability entry in data set [1], in data set [2] and in data set [3] was “Stable” each time.
As for `Fc1cccc(-c2nn3c(-c4ccccn4)nnc3s2)c1`, the IC50 at dCTP pyrophosphatase 1 was 357 nM. The Stability entry in data set [1], in data set [2] and in data set [3] was “Stable” throughout.
`COc1ccc(-c2nn3c(-c4ccccn4)nnc3s2)cc1`: the IC50 at dCTP pyrophosphatase 1 fell in the range of 282 to 316 nM. In addition, the Stability result in data set [1], in data set [2] and in data set [3] was “Stable” throughout.
Take `COc1cccc(-c2nn3c(-c4ccccn4)nnc3s2)c1`: the IC50 at dCTP pyrophosphatase 1 came to 1880 nM. In addition, the Stability entry in data set [1], in data set [2] and in data set [3] was “Stable” throughout.
On to `c1ccc(CCCCc2nn3c(-c4ccccn4)nnc3s2)cc1`, for which the concentration for half-maximal inhibition (IC50) at dCTP pyrophosphatase 1 stood at 1370 nM. For the same compound, the Stability entry in data set [1], in data set [2] and in data set [3] was “Stable” in each case.
As for `Clc1ccc(-c2nn3c(-c4ccccn4)nnc3s2)c(Cl)c1`, the 50% inhibitory concentration (IC50) on dCTP pyrophosphatase 1 is 419 nM. In addition, the Stability result in data set [1], in data set [2] and in data set [3] was “Stable” each time.
Turning to `CCCCc1nnc2sc(-c3cc(C)nc4ccccc34)nn12`, on dCTP pyrophosphatase 1, the half-maximal inhibitory concentration (IC50) turned out to be 5610 nM. Moreover, the Stability result in data set [1], in data set [2] and in data set [3] was “Stable” throughout.
Regarding `Cc1ccc(-c2nn3c(-c4ccccn4)nnc3s2)cc1`, on dCTP pyrophosphatase 1, the IC50 was determined as 469 nM. For the same compound, the Stability entry in data set [1], in data set [2] and in data set [3] was “Stable” in each case.
Regarding `CCOc1ccc(-c2nn3c(-c4ccccn4)nnc3s2)cc1OCC`, the half-maximal inhibitory concentration (IC50) at dCTP pyrophosphatase 1 came out at 1170 nM. The Stability result in data set [1], in data set [2] and in data set [3] was “Stable” in each case.
Consider `Cc1ccccc1-c1nn2c(-c3ccccn3)nnc2s1`, for which the IC50 on dCTP pyrophosphatase 1 is 505 to 746 nM. Further, the Stability entry in data set [1], in data set [2] and in data set [3] was “Stable” in each case.
On to `C=CCOc1ccc(-c2nn3c(-c4ccccn4)nnc3s2)cc1`, for which the half-maximal inhibitory concentration (IC50) on dCTP pyrophosphatase 1 is 1210 nM. For the same compound, the Stability result in data set [1], in data set [2] and in data set [3] was “Stable” each time.
In the case of `C(=C\c1cccnc1)/Cc1nn2c(-c3ccco3)nnc2s1`, the concentration for half-maximal inhibition (IC50) at dCTP pyrophosphatase 1 is 453 nM. Moreover, the Stability result in data set [1], in data set [2] and in data set [3] was “Stable” each time.
Turning to `c1ccc(-c2nnc3sc(-c4cc5ccccc5o4)nn23)nc1`, on dCTP pyrophosphatase 1, the IC50 came out at 401 nM. The Stability result in data set [1], in data set [2] and in data set [3] was “Stable” throughout.

The record behind these values is ChEMBL document CHEMBL4007403, “Identification of Triazolothiadiazoles as Potent Inhibitors of the dCTP Pyrophosphatase 1” (J Med Chem, 2017).
